Reference: patent US20260216137A1, “COMPOSITION FOR PREVENTING OR TREATING INFLAMMATORY SKIN DISEASES,CONTAINING 1H-PYRAZOLE-3-AMIDE COMPOUND DERIVATIVE” (AJOU UNIVERSITY INDUSTRY-ACADEMIC COOPERATION FOUNDATION, priority 2023, published 2026)

Legend:
Assay type in all cases: in vivo
psoriasis mouse model [1] = experiment: Psoriasis mouse model (Aldara cream): PASI score and spleen weight; settings: Aldara cream psoriasis mice; intraperitoneal daily, Compound 1 20 mg/kg, Compound 2 10 mg/kg; FIG. 2
Description: (§1) The hair on the backs of 7-week-old mice was removed, and then 62.5 mg of Aldara cream was applied daily for 4 days. 1% DMSO and 5% kolliphor in PBS were mixed to be injected into the vehicle intraperitoneally daily. 20 mg/kg of Compound 1, 10 mg/kg of Compound 2, and 10 mg/kg of MTx were prepared in body weight×[…], which was injected intraperitoneally daily. After injection, the mice were left for 30 minutes for sufficient suppression of cannabinoid receptor 1, applied with Aldara cream, and then sacrificed on day 5 from day 1 at which the Aldara cream was first applied, and skin tissues were made into paraffin blocks. These were evenly cut into 4 μm thick pieces, and immunochemical staining was performed.

psoriasis mouse model [2] = experiment: Psoriasis mouse model: skin thickness by hematoxylin/eosin staining; settings: Aldara cream psoriasis mice; intraperitoneal daily, Compound 1 20 mg/kg, Compound 2 10 mg/kg; FIG. 3
Description: as §1
(§2) The slides were placed in a 60° C. oven for 1 hour, rinsed with xylene solution for 5 minutes, 100% EtOH for 5 minutes, 70% EtOH for 5 minutes, distilled water, and PBS, and then immersed in hematoxylin for 10 seconds and eosin for 3 seconds. Afterwards, they were rinsed with 70% EtOH and 100% EtOH, immersed in xylene for 20 seconds, sprayed with mounting solution, and covered with a cover glass. Each section of the skin tissue was photographed using a Leica microscope and then quantified by setting three sections per tissue as the average.

TNF-α = experiment: Psoriasis mouse model: TNF-α expression by immunohistochemical staining; settings: Aldara cream psoriasis mice; intraperitoneal daily, Compound 1 20 mg/kg, Compound 2 10 mg/kg; FIG. 4
Description: as §1
(§3) For immunohistochemical staining, the slides were placed in a 60° C. oven for 1 hour, rinsed with xylene solution for 5 minutes, 100% EtOH for 5 minutes, 70% EtOH for 5 minutes, distilled water, and PBS, then immersed in citrate buffer, placed in a 100° C. oven for 30 minutes, and slowly cooled at room temperature for 45 minutes. After rinsing with distilled water, the slides were soaked in PBS for 5 minutes, sprayed with 0.25% TritonX-100, and left for 10 minutes to disrupt the cell membrane and allow the antibodies to penetrate. […]
(§4) The signals of TNF-α and IL-1B, stained brown, were quantified through immunohistochemical staining.

IL-1ß = experiment: Psoriasis mouse model: IL-1β expression by immunohistochemical staining; settings: Compound 1 20 mg/kg; for expression level of IL-1ß in the epidermis compared to vehicle group: Aldara cream psoriasis mice, intraperitoneal daily, Compound 2 10 mg/kg, FIG. 5
Description: as §1
For immunohistochemical staining, the slides were placed in a 60° C. oven for 1 hour, rinsed with xylene solution for 5 minutes, 100% EtOH for 5 minutes, 70% EtOH for 5 minutes, distilled water, and PBS, then immersed in citrate buffer, placed in a 100° C. oven for 30 minutes, and slowly cooled at room temperature for 45 minutes. After rinsing with distilled water, the slides were soaked in PBS for 5 minutes, sprayed with 0.25% TritonX-100, and left for 10 minutes to disrupt the cell membrane and allow the antibodies to penetrate. After rinsing with 0.1% Tween 20 in PBS (hereinafter referred to as PBST), hydrogen peroxide block buffer (abcam59717) was sprayed and left for 10 minutes. Afterwards, after rinsing with PBST, the slides were sprayed with 150 μl of normal blocking serum (VectastatinABC kit, PK-4001) mixed in 10 ml of PBS. The primary antibody was mixed with R.T.U animal free block and diluent (SP-5035) in 1:500, spread on the slides, and reacted in a refrigerator at 4° C. for 14 hours. After rinsing with PBST, the secondary antibody was applied for 1 hour and then HRP (VectastatinABC reagent) for 30 minutes. […]
as §4

[3] = tested on: contact dermatitis mouse model; experiment: Contact dermatitis mouse model (oxazolone on ears): symptoms of dermatitis; settings: oxazolone contact dermatitis mice; intraperitoneal daily, Compound 2 20 mg/kg, Compound 1 10 mg/kg; FIG. 6
Description: (§5) After removing hair from the ears of 7-week-old mice, on the day after hair removal (day 1), oxazolone (4-ethoxymethylene-2-phenyl-2-oxazolin-5-one, cat #E0753-1G, sigma-Aldrich) was mixed in acetone and olive oil in a concentration of 2%, which was then applied to the inner and outer sides of the ears by 5 μl each. 1% DMSO and 5% kolliphor in PBS were mixed to be injected into the vehicle intraperitoneally daily. Intraperitoneal injection was conducted daily by 20 mg/kg for Compound 2 and 10 mg/kg for Compound 1 with a 30 interval for sufficient suppression of cannabinoid receptor 1 after the injection, and then the size of the ears was measured, followed by application of oxazolone (on days 1 and 6). On day 6, 1% oxazolone was prepared and applied to the inner and outer side of the ears by 5 μl each, and on day 7, the mice were sacrificed, with the ears formed into paraffin blocks and then cut into 4 μm thick pieces to be placed on slides.
The 2% oxazolone used on day 1 was finally prepared in a volume of 800 μl for 20 mice, 16 mg of oxazolone was first dissolved in 160 μl of olive oil, then 640 μl of acetone was additionally mixed, and 10 μl of the mixture was applied on both ears, 5 μl for the front and 5 μl for the back per ear. […]

[4] = tested on: contact dermatitis mouse model; experiment: Contact dermatitis mouse model: ear skin thickness by hematoxylin/eosin staining; settings: oxazolone contact dermatitis mice; intraperitoneal daily, Compound 2 20 mg/kg, Compound 1 10 mg/kg; FIG. 7
Description: as §5, with “slides. […]” for “slides.”
as §2, with “Afterwards, they were rinsed with 70% EtOH and 100% EtOH, immersed in xylene for 20 seconds, sprayed with mounting solution, and covered with a cover glass.” left out, “of” for “of the”

IL-1B = experiment: Contact dermatitis mouse model: IL-1β expression by immunohistochemical staining; settings: oxazolone contact dermatitis mice; intraperitoneal daily, Compound 2 20 mg/kg, Compound 1 10 mg/kg; FIG. 8
Description: as §3, with “penetrate. After rinsing with 0.1% Tween 20 in PBS (hereinafter referred to as PBST), hydrogen peroxide block buffer (abcam59717) was sprayed and left for 10 minutes.” for “penetrate.”
(§6) After removing hair from the ears of 7-week-old mice, on the day after hair removal (day 1), oxazolone (4-ethoxymethylene-2-phenyl-2-oxazolin-5-one, cat #E0753-1G, sigma-Aldrich) was mixed in acetone and olive oil in a concentration of 2%, which was then applied to the inner and outer sides of the ears by 5 μl each. […] Intraperitoneal injection was conducted daily by 20 mg/kg for Compound 2 and 10 mg/kg for Compound 1 with a 30 interval for sufficient suppression of cannabinoid receptor 1 after the injection, and then the size of the ears was measured, followed by application of oxazolone (on days 1 and 6). […]

IL-17A = experiment: Contact dermatitis mouse model: IL-17A expression by immunohistochemical staining; settings: oxazolone contact dermatitis mice; intraperitoneal daily, Compound 2 20 mg/kg, Compound 1 10 mg/kg; FIG. 9
Description: as §3, with “penetrate. After rinsing with 0.1% Tween 20 in PBS (hereinafter referred to as PBST), hydrogen peroxide block buffer (abcam59717) was sprayed and left for 10 minutes.” for “penetrate.”
as §6

Compound: Cc1c(C(=O)C(=O)NCCO)nn(-c2ccc(Cl)cc2Cl)c1-c1ccc(Cl)cc1 [Compound 1, 2-(5-(4-chlorophenyl)-1-(2,4-dichlorophenyl)-4-methyl-1H-pyrazol-3-yl)-N-(2-hydroxyethyl)-2-oxoacetamide]
- PASI score compared to vehicle group (psoriasis mouse model [1]): lower
- spleen weight compared to vehicle group (psoriasis mouse model [1]): decrease
- thickness of the epidermis compared to vehicle group (psoriasis mouse model [2]): significantly reduced
- expression level of TNF-α in the epidermis compared to vehicle group (TNF-α): significantly reduced
- expression level of IL-1ß in the epidermis compared to vehicle group (IL-1ß): significantly reduced
- inhibitory effect on inflammatory factor expression, Compound 1 versus Compound 2 (IL-1ß; psoriasis mice, comparison stated after the TNF-α and IL-1ß results, Compound 2 10 mg/kg intraperitoneal): higher than that of Compound 2
- symptoms of contact dermatitis compared to vehicle group [3]: reduced
- thickness of the ear skin compared to vehicle group [4]: significantly reduced
- expression level of IL-1B in the epidermis compared to vehicle group (IL-1B): significantly reduced
- expression level of IL-17A compared to vehicle group (IL-17A): significantly reduced

Compound: Cc1c(/C=C/C(=O)NCc2cccc(Cl)c2)nn(-c2ccc(Cl)cc2Cl)c1-c1ccc(Cl)cc1 [Compound 2, (E)-N-(3-chlorobenzyl)-3-(5-(4-chlorophenyl)-1-(2,4-dichlorophenyl)-4-methyl-1H-pyrazol-3-yl) acrylamide]
- PASI score compared to vehicle group (psoriasis mouse model [1]): lower
- spleen weight compared to vehicle group (psoriasis mouse model [1]): decrease
- thickness of the epidermis compared to vehicle group (psoriasis mouse model [2]): significantly reduced
- expression level of TNF-α in the epidermis compared to vehicle group (TNF-α): significantly reduced
- expression level of IL-1ß in the epidermis compared to vehicle group (IL-1ß): significantly reduced
- symptoms of contact dermatitis compared to vehicle group [3]: reduced
- thickness of the ear skin compared to vehicle group [4]: significantly reduced
- expression level of IL-1B in the epidermis compared to vehicle group (IL-1B): significantly reduced
- expression level of IL-17A compared to vehicle group (IL-17A): significantly reduced
